Measurements from PubChem BioAssay AID1259407 (Chemical Carcinogenesis Research Information System (CCRIS), 2018).
Active and inactive are the calls of the source. The rule behind the calls is not given here.

System: CCRIS mutagenicity, Ames/micronucleus/aberration tests
Test: CCRIS mutagenicity studies
[1] = Test System: AMES SALMONELLA TYPHIMURIUM, Strain/Indicator: TA98, Metabolic Activation: HAMSTER, LIVER, S-9, AROCLOR 1254 (10%), Method: PREINCUBATION
[2] = Test System: AMES SALMONELLA TYPHIMURIUM, Strain/Indicator: TA98, Metabolic Activation: NONE, Method: PREINCUBATION
[3] = Test System: AMES SALMONELLA TYPHIMURIUM, Strain/Indicator: TA98, Metabolic Activation: NONE, Method: STANDARD PLATE
[4] = Test System: AMES SALMONELLA TYPHIMURIUM, Strain/Indicator: TA98, Metabolic Activation: RAT, LIVER, S-9, AROCLOR 1254 (10%), Method: PREINCUBATION
[5] = Test System: AMES SALMONELLA TYPHIMURIUM, Strain/Indicator: TA100, Metabolic Activation: HAMSTER, LIVER, S-9, AROCLOR 1254 (10%), Method: PREINCUBATION
[6] = Test System: AMES SALMONELLA TYPHIMURIUM, Strain/Indicator: TA100, Metabolic Activation: NONE, Method: PREINCUBATION
[7] = Test System: AMES SALMONELLA TYPHIMURIUM, Strain/Indicator: TA100, Metabolic Activation: NONE, Method: STANDARD PLATE
[8] = Test System: AMES SALMONELLA TYPHIMURIUM, Strain/Indicator: TA100, Metabolic Activation: RAT, LIVER, S-9, AROCLOR 1254 (10%), Method: PREINCUBATION
[9] = Test System: AMES SALMONELLA TYPHIMURIUM, Strain/Indicator: TA1535, Metabolic Activation: HAMSTER, LIVER, S-9, AROCLOR 1254 (10%), Method: PREINCUBATION
[10] = Test System: AMES SALMONELLA TYPHIMURIUM, Strain/Indicator: TA1535, Metabolic Activation: NONE, Method: PREINCUBATION
[11] = Test System: AMES SALMONELLA TYPHIMURIUM, Strain/Indicator: TA1535, Metabolic Activation: NONE, Method: STANDARD PLATE
[12] = Test System: AMES SALMONELLA TYPHIMURIUM, Strain/Indicator: TA1535, Metabolic Activation: RAT, LIVER, S-9, AROCLOR 1254 (10%), Method: PREINCUBATION
[13] = Test System: AMES SALMONELLA TYPHIMURIUM, Strain/Indicator: TA1537, Metabolic Activation: HAMSTER, LIVER, S-9, AROCLOR 1254 (10%), Method: PREINCUBATION
[14] = Test System: AMES SALMONELLA TYPHIMURIUM, Strain/Indicator: TA1537, Metabolic Activation: NONE, Method: PREINCUBATION
[15] = Test System: AMES SALMONELLA TYPHIMURIUM, Strain/Indicator: TA1537, Metabolic Activation: RAT, LIVER, S-9, AROCLOR 1254 (10%), Method: PREINCUBATION
[16] = Test System: AMES SALMONELLA TYPHIMURIUM, Strain/Indicator: TA98, Metabolic Activation: RAT, LIVER, S-9, AROCLOR 1254, Method: STANDARD PLATE
[17] = Test System: AMES SALMONELLA TYPHIMURIUM, Strain/Indicator: TA100, Metabolic Activation: RAT, LIVER, S-9, AROCLOR 1254, Method: STANDARD PLATE
[18] = Test System: AMES SALMONELLA TYPHIMURIUM, Strain/Indicator: TA1537, Metabolic Activation: NONE, Method: STANDARD PLATE
[19] = Test System: AMES SALMONELLA TYPHIMURIUM, Strain/Indicator: TA1537, Metabolic Activation: RAT, LIVER, S-9, AROCLOR 1254, Method: STANDARD PLATE

Nc1n[nH]c(N)n1
mutagenic call (Test System: AMES SALMONELLA TYPHIMURIUM, Strain/Indicator: TA97, Metabolic Activation: NONE, Method: STANDARD PLATE): inactive; negative | mutagenic call (Test System: AMES SALMONELLA TYPHIMURIUM, Strain/Indicator: TA97, Metabolic Activation: RAT, LIVER, S-9, AROCLOR, Method: STANDARD PLATE): inactive; negative | mutagenic call [1]: inactive; negative | mutagenic call [2]: inactive; negative | mutagenic call [3]: inactive; negative | mutagenic call [4]: inactive; negative | mutagenic call (Test System: AMES SALMONELLA TYPHIMURIUM, Strain/Indicator: TA98, Metabolic Activation: RAT, LIVER, S-9, AROCLOR, Method: STANDARD PLATE): inactive; negative | mutagenic call [5]: inactive; negative | mutagenic call [6]: inactive; negative | mutagenic call [7]: inactive; negative | mutagenic call [8]: inactive; negative | mutagenic call (Test System: AMES SALMONELLA TYPHIMURIUM, Strain/Indicator: TA100, Metabolic Activation: RAT, LIVER, S-9, AROCLOR, Method: STANDARD PLATE): inactive; negative | mutagenic call (Test System: AMES SALMONELLA TYPHIMURIUM, Strain/Indicator: TA102, Metabolic Activation: NONE, Method: STANDARD PLATE): active; positive | mutagenic call (Test System: AMES SALMONELLA TYPHIMURIUM, Strain/Indicator: TA102, Metabolic Activation: RAT, LIVER, S-9, AROCLOR 1254, Method: STANDARD PLATE): active; positive | mutagenic call [9]: inactive; negative | mutagenic call [10]: inactive; negative | mutagenic call [11]: inactive; negative | mutagenic call [12]: inactive; negative | mutagenic call (Test System: AMES SALMONELLA TYPHIMURIUM, Strain/Indicator: TA1535, Metabolic Activation: RAT, LIVER, S-9, AROCLOR, Method: STANDARD PLATE): inactive; negative | mutagenic call [13]: inactive; negative | mutagenic call [14]: inactive; negative | mutagenic call [15]: inactive; negative | mutagenic call (Test System: UDS RODENT HEPATOCYTES, Strain/Indicator: THY INCORP (NON-S-PHASE), Metabolic Activation: NONE, Method: AUTORADIOGRAPHY): inactive; negative

CSCCCCN=C=S
mutagenic call (End Point: IN VITRO MICRONUCLEUS, Test System: HUMAN T-LYMPHOCYTES, Metabolic Activation: NONE): inactive; negative

NNC(=O)CNc1ccc2ccccc2c1
mutagenic call [3]: inactive; negative | mutagenic call [16]: inactive; negative | mutagenic call [7]: inactive; negative | mutagenic call [17]: inactive; negative | mutagenic call [18]: inactive; negative | mutagenic call [19]: inactive; negative

CC(C)CCO
mutagenic call (Test System: CHINESE HAMSTER V-79, Strain/Indicator: V-79 (HPRT)/6-THIOGUANINE, Metabolic Activation: NONE, Method: STANDARD PLATE): inactive; negative | mutagenic call (Test System: CHINESE HAMSTER V-79, Strain/Indicator: V-79 (HPRT)/6-THIOGUANINE, Metabolic Activation: RAT LIVER S-9, Method: STANDARD PLATE): inactive; negative | mutagenic call (Test System: CHINESE HAMSTER V-79 CELLS, Strain/Indicator: V-79 CELLS (HPRT)/6-THIOGUANINE, Metabolic Activation: NONE, Method: PREINCUBATION): inactive; negative | mutagenic call (Test System: CHINESE HAMSTER V-79 CELLS, Strain/Indicator: V-79 CELLS (HPRT)/6-THIOGUANINE, Metabolic Activation: S-9 (3%), Method: PREINCUBATION): inactive; negative

CCc1cccc(CC)c1N=O
mutagenic call [2]: active; positive | mutagenic call (Test System: AMES SALMONELLA TYPHIMURIUM, Strain/Indicator: TA98, Metabolic Activation: RAT, LIVER, MICROSOMES, PHENOBARBITAL, Method: PREINCUBATION): active; positive | mutagenic call (Test System: AMES SALMONELLA TYPHIMURIUM, Strain/Indicator: TA100, Metabolic Activation: RAT, LIVER, MICROSOMES, PHENOBARBITAL, Method: PREINCUBATION): active; positive

O=C(Nc1cccc2c(=O)c3c(ccc4c5cc(NC(=O)c6ccccc6)c6c(=O)c7ccccc7c(=O)c6c5[nH]c43)c(=O)c12)c1ccccc1
mutagenic call [1]: inactive; negative | mutagenic call [2]: inactive; negative | mutagenic call [4]: inactive; negative | mutagenic call [5]: inactive; negative | mutagenic call [6]: inactive; negative | mutagenic call [8]: inactive; negative | mutagenic call [9]: inactive; negative | mutagenic call [10]: inactive; negative | mutagenic call [12]: inactive; negative | mutagenic call [13]: inactive; negative | mutagenic call [14]: inactive; negative | mutagenic call [15]: inactive; negative | mutagenic call (Test System: Ames Salmonella typhimurium, Strain/Indicator: TA98, Metabolic Activation: None, Method: Preincubation): active; positive | mutagenic call (Test System: Ames Salmonella typhimurium, Strain/Indicator: TA100, Metabolic Activation: None, Method: Preincubation): inactive; negative | mutagenic call (Test System: Ames Salmonella typhimurium, Strain/Indicator: TA102, Metabolic Activation: None, Method: Preincubation): inactive; negative | mutagenic call (Test System: Ames Salmonella typhimurium, Strain/Indicator: TA1535, Metabolic Activation: None, Method: Preincubation): inactive; negative

Cc1cc(C(=O)NNCc2ccccc2)no1
mutagenic call [3]: inactive; negative | mutagenic call [16]: inactive; negative | mutagenic call [7]: inactive; negative | mutagenic call [17]: inactive; negative | mutagenic call [11]: inactive; negative | mutagenic call (Test System: AMES SALMONELLA TYPHIMURIUM, Strain/Indicator: TA1535, Metabolic Activation: RAT, LIVER, S-9, AROCLOR 1254, Method: STANDARD PLATE): inactive; negative | mutagenic call [18]: inactive; negative | mutagenic call [19]: inactive; negative

CC(C)=CCC/C(C)=C/CC/C(C)=C/C(=O)OCC(=O)[C@@]1(O)CC[C@H]2[C@@H]3CCC4=CC(=O)C=C[C@]4(C)[C@H]3[C@@H](O)C[C@@]21C
mutagenic call [3]: inactive; negative | mutagenic call (Test System: AMES SALMONELLA TYPHIMURIUM, Strain/Indicator: TA98, Metabolic Activation: RAT, LIVER, S-9, PHENOBARBITAL AND 5,6-BENZOFLAVONE, Method: STANDARD PLATE): inactive; negative | mutagenic call [7]: inactive; negative | mutagenic call (Test System: AMES SALMONELLA TYPHIMURIUM, Strain/Indicator: TA100, Metabolic Activation: RAT, LIVER, S-9, PHENOBARBITAL AND 5,6-BENZOFLAVONE, Method: STANDARD PLATE): inactive; negative | mutagenic call [11]: inactive; negative | mutagenic call (Test System: AMES SALMONELLA TYPHIMURIUM, Strain/Indicator: TA1535, Metabolic Activation: RAT, LIVER, S-9, PHENOBARBITAL AND 5,6-BENZOFLAVONE, Method: STANDARD PLATE): inactive; negative | mutagenic call [18]: inactive; negative | mutagenic call (Test System: AMES SALMONELLA TYPHIMURIUM, Strain/Indicator: TA1537, Metabolic Activation: RAT, LIVER, S-9, PHENOBARBITAL AND 5,6-BENZOFLAVONE, Method: STANDARD PLATE): inactive; negative | mutagenic call (Test System: E. COLI, Strain/Indicator: WP2 UVRA, Metabolic Activation: NONE, Method: STANDARD PLATE): inactive; negative | mutagenic call (Test System: E. COLI, Strain/Indicator: WP2 UVRA, Metabolic Activation: RAT, LIVER, S-9, PHENOBARBITAL AND 5,6-BENZOFLAVONE, Method: STANDARD PLATE): inactive; negative
